Results taken from PubChem BioAssay AID1963838 (Molecular Pharmacology Branch, DTP, NCI, 2024).

Tested on: 855422-203-R-J1-PDC complex spheroid viability
Assay: Anticancer human tumor 855422-203-R-J1-PDC patient-derived bladder carcinoma cell line growth inhibition [POLQ]
Details: for IC50: curve of first compound; for viability, T/C: stronger effect = lower value
In short: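 PDC + HUVEC + MSC complex spheroids; POLQ inhibitors ± partner drugs; top conc. at/near clinical Cmax, else 10 microM (SN-38 1 microM), half-log dilutions; 37 degrees C, 5% CO2.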

[1] = second compound 0.0316 µM, first compound 0.00316 µM
[2] = second compound 0.0316 µM, first compound 0.01 µM
[3] = second compound 0.0316 µM, first compound 0.0316 µM
[4] = second compound 0.0316 µM, first compound 0.1 µM
[5] = second compound 0.0316 µM, first compound 0.316 µM
[6] = second compound 0.0316 µM, first compound 1 µM
[7] = second compound 0.1 µM, first compound 0.00316 µM
[8] = second compound 0.1 µM, first compound 0.01 µM
[9] = second compound 0.1 µM, first compound 0.0316 µM
[10] = second compound 0.1 µM, first compound 0.1 µM
[11] = second compound 0.1 µM, first compound 0.316 µM
[12] = second compound 0.1 µM, first compound 1 µM
[13] = second compound 0.316 µM, first compound 0.00316 µM
[14] = second compound 0.316 µM, first compound 0.01 µM
[15] = second compound 0.316 µM, first compound 0.0316 µM
[16] = second compound 0.316 µM, first compound 0.1 µM
[17] = second compound 0.316 µM, first compound 0.316 µM
[18] = second compound 0.316 µM, first compound 1 µM
[19] = second compound 1 µM, first compound 0.00316 µM
[20] = second compound 1 µM, first compound 0.01 µM
[21] = second compound 1 µM, first compound 0.0316 µM
[22] = second compound 1 µM, first compound 0.1 µM
[23] = second compound 1 µM, first compound 0.316 µM
[24] = second compound 1 µM, first compound 1 µM
[25] = second compound 3.16 µM, first compound 0.00316 µM
[26] = second compound 3.16 µM, first compound 0.01 µM
[27] = second compound 3.16 µM, first compound 0.0316 µM
[28] = second compound 3.16 µM, first compound 0.1 µM
[29] = second compound 3.16 µM, first compound 0.316 µM
[30] = second compound 3.16 µM, first compound 1 µM
[31] = second compound 10 µM, first compound 0.00316 µM
[32] = second compound 10 µM, first compound 0.01 µM
[33] = second compound 10 µM, first compound 0.0316 µM
[34] = second compound 10 µM, first compound 0.1 µM
[35] = second compound 10 µM, first compound 0.316 µM
[36] = second compound 10 µM, first compound 1 µM
[37] = second compound 0.0316 µM, first compound 3.16 µM
[38] = second compound 0.0316 µM, first compound 10 µM
[39] = second compound 0.1 µM, first compound 3.16 µM
[40] = second compound 0.1 µM, first compound 10 µM
[41] = second compound 0.316 µM, first compound 3.16 µM
[42] = second compound 0.316 µM, first compound 10 µM
[43] = second compound 1 µM, first compound 3.16 µM
[44] = second compound 1 µM, first compound 10 µM
[45] = second compound 3.16 µM, first compound 3.16 µM
[46] = second compound 3.16 µM, first compound 10 µM
[47] = second compound 10 µM, first compound 3.16 µM
[48] = second compound 10 µM, first compound 10 µM
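Also: spheroids exposed to compounds for seven days before readout.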

Compound: C=CCn1c(=O)c2cnc(Nc3ccc(N4CCN(C)CC4)cc3)nc2n1-c1cccc(C(C)(C)O)n1 + Nc1ccc(C#CCN(C(=O)Cc2ncc(C(F)(F)F)cc2C(F)(F)F)c2ccc(F)cc2)nn1
- IC50 (second compound 0.0316 µM): > 1000 nM
- IC50 (second compound 0.1 µM): > 1000 nM
- IC50 (second compound 0.316 µM): > 1000 nM
- IC50 (second compound 1 µM): > 1000 nM
- IC50 (second compound 3.16 µM): > 1000 nM
- IC50 (second compound 10 µM): > 1000 nM
- viability, T/C [1]: 96.4%
- viability, T/C [2]: 152%
- viability, T/C [3]: 113%
- viability, T/C [4]: 85.5%
- viability, T/C [5]: 113%
- viability, T/C [6]: 204%
- viability, T/C [7]: 97%
- viability, T/C [8]: 127%
- viability, T/C [9]: 110%
- viability, T/C [10]: 101%
- viability, T/C [11]: 114%
- viability, T/C [12]: 160%
- viability, T/C [13]: 110%
- viability, T/C [14]: 134%
- viability, T/C [15]: 102%
- viability, T/C [16]: 107%
- viability, T/C [17]: 110%
- viability, T/C [18]: 219%
- viability, T/C [19]: 94.4%
- viability, T/C [20]: 144%
- viability, T/C [21]: 103%
- viability, T/C [22]: 112%
- viability, T/C [23]: 118%
- viability, T/C [24]: 193%
- viability, T/C [25]: 102%
- viability, T/C [26]: 112%
- viability, T/C [27]: 107%
- viability, T/C [28]: 115%
- viability, T/C [29]: 126%
- viability, T/C [30]: 198%
- viability, T/C [31]: 104%
- viability, T/C [32]: 101%
- viability, T/C [33]: 96.9%
- viability, T/C [34]: 122%
- viability, T/C [35]: 109%
- viability, T/C [36]: 161%

Compound: CC1COCCN1c1cc(C2(S(C)(=N)=O)CC2)nc(-c2ccnc3[nH]ccc23)n1 (stereo not drawn) + Nc1ccc(C#CCN(C(=O)Cc2ncc(C(F)(F)F)cc2C(F)(F)F)c2ccc(F)cc2)nn1
- IC50 (second compound 0.0316 µM): 5250 nM
- IC50 (second compound 0.1 µM): 3920 nM
- IC50 (second compound 0.316 µM): 3050 nM
- IC50 (second compound 1 µM): 3400 nM
- IC50 (second compound 3.16 µM): 2890 nM
- IC50 (second compound 10 µM): 2530 nM
- viability, T/C [3]: 104%
- viability, T/C [4]: 98.9%
- viability, T/C [5]: 132%
- viability, T/C [6]: 98.2%
- viability, T/C [37]: 78.2%
- viability, T/C [38]: 14.9%
- viability, T/C [9]: 111%
- viability, T/C [10]: 124%
- viability, T/C [11]: 99.8%
- viability, T/C [12]: 187%
- viability, T/C [39]: 57.6%
- viability, T/C [40]: 16.6%
- viability, T/C [15]: 95.4%
- viability, T/C [16]: 111%
- viability, T/C [17]: 102%
- viability, T/C [18]: 180%
- viability, T/C [41]: 47.8%
- viability, T/C [42]: 13.9%
- viability, T/C [21]: 93.3%
- viability, T/C [22]: 108%
- viability, T/C [23]: 116%
- viability, T/C [24]: 144%
- viability, T/C [43]: 52.4%
- viability, T/C [44]: 14.1%
- viability, T/C [27]: 111%
- viability, T/C [28]: 91.7%
- viability, T/C [29]: 119%
- viability, T/C [30]: 189%
- viability, T/C [45]: 43.2%
- viability, T/C [46]: 11.3%
- viability, T/C [33]: 97.7%
- viability, T/C [34]: 96.1%
- viability, T/C [35]: 113%
- viability, T/C [36]: 152%
- viability, T/C [47]: 34.3%
- viability, T/C [48]: 11.3%

Compound: CNCc1ccc(-c2[nH]c3cc(F)cc4c3c2CCNC4=O)cc1 + Nc1ccc(C#CCN(C(=O)Cc2ncc(C(F)(F)F)cc2C(F)(F)F)c2ccc(F)cc2)nn1
- IC50 (second compound 0.0316 µM): > 10000 nM
- IC50 (second compound 0.1 µM): > 10000 nM
- IC50 (second compound 0.316 µM): > 10000 nM
- IC50 (second compound 1 µM): > 10000 nM
- IC50 (second compound 3.16 µM): > 10000 nM
- IC50 (second compound 10 µM): > 10000 nM
- viability, T/C [3]: 94.5%
- viability, T/C [4]: 131%
- viability, T/C [5]: 102%
- viability, T/C [6]: 102%
- viability, T/C [37]: 106%
- viability, T/C [38]: 116%
- viability, T/C [9]: 97.8%
- viability, T/C [10]: 154%
- viability, T/C [11]: 112%
- viability, T/C [12]: 86%
- viability, T/C [39]: 99.2%
- viability, T/C [40]: 115%
- viability, T/C [15]: 100%
- viability, T/C [16]: 121%
- viability, T/C [17]: 108%
- viability, T/C [18]: 91.4%
- viability, T/C [41]: 100%
- viability, T/C [42]: 119%
- viability, T/C [21]: 90.9%
- viability, T/C [22]: 115%
- viability, T/C [23]: 91.4%
- viability, T/C [24]: 104%
- viability, T/C [43]: 118%
- viability, T/C [44]: 112%
- viability, T/C [27]: 94.9%
- viability, T/C [28]: 119%
- viability, T/C [29]: 101%
- viability, T/C [30]: 97.3%
- viability, T/C [45]: 101%
- viability, T/C [46]: 104%
- viability, T/C [33]: 98.3%
- viability, T/C [34]: 102%
- viability, T/C [35]: 107%
- viability, T/C [36]: 100%
- viability, T/C [47]: 110%
- viability, T/C [48]: 97.8%

Compound: Cn1ncnc1[C@H]1c2n[nH]c(=O)c3cc(F)cc(c23)N[C@@H]1c1ccc(F)cc1 + Nc1ccc(C#CCN(C(=O)Cc2ncc(C(F)(F)F)cc2C(F)(F)F)c2ccc(F)cc2)nn1
- IC50 (second compound 0.0316 µM): > 100 nM
- IC50 (second compound 0.1 µM): > 100 nM
- IC50 (second compound 0.316 µM): > 100 nM
- IC50 (second compound 1 µM): > 100 nM
- IC50 (second compound 3.16 µM): > 100 nM
- IC50 (second compound 10 µM): > 100 nM
- viability, T/C (second compound 0.0316 µM, first compound 0.000316 µM): 96.1%
- viability, T/C (second compound 0.0316 µM, first compound 0.001 µM): 125%
- viability, T/C [1]: 96%
- viability, T/C [2]: 82%
- viability, T/C [3]: 110%
- viability, T/C [4]: 132%
- viability, T/C (second compound 0.1 µM, first compound 0.000316 µM): 88.6%
- viability, T/C (second compound 0.1 µM, first compound 0.001 µM): 157%
- viability, T/C [7]: 92%
- viability, T/C [8]: 104%
- viability, T/C [9]: 119%
- viability, T/C [10]: 147%
- viability, T/C (second compound 0.316 µM, first compound 0.000316 µM): 91.7%
- viability, T/C (second compound 0.316 µM, first compound 0.001 µM): 154%
- viability, T/C [13]: 91.4%
- viability, T/C [14]: 106%
- viability, T/C [15]: 96.2%
- viability, T/C [16]: 181%
- viability, T/C (second compound 1 µM, first compound 0.000316 µM): 98.8%
- viability, T/C (second compound 1 µM, first compound 0.001 µM): 154%
- viability, T/C [19]: 96%
- viability, T/C [20]: 93.2%
- viability, T/C [21]: 115%
- viability, T/C [22]: 153%
- viability, T/C (second compound 3.16 µM, first compound 0.000316 µM): 92%
- viability, T/C (second compound 3.16 µM, first compound 0.001 µM): 135%
- viability, T/C [25]: 95.7%
- viability, T/C [26]: 106%
- viability, T/C [27]: 134%
- viability, T/C [28]: 122%
- viability, T/C (second compound 10 µM, first compound 0.000316 µM): 93.2%
- viability, T/C (second compound 10 µM, first compound 0.001 µM): 110%
- viability, T/C [31]: 88.3%
- viability, T/C [32]: 100%
- viability, T/C [33]: 102%
- viability, T/C [34]: 132%
